Experiments:
[1] = Phase II trials, adverse events; assay type: in vivo, women
Excerpt: The present invention was used to test a particular drug compound, NNC 46-0020, which was designed to protect healthy women from getting osteoporosis.

[2] = Phase III trials, CUSUM surveillance of prolapses and urinary incontinence; assay type: in vivo, women
Excerpt: Phase III consisted of studies including 3000 women. The inclusion criteria were extended so that the women were older than those participating in phase II. Subjects were randomized to take either a placebo or NNC 46-0020 in one of two doses. […] As explained in detail below, this product has motivated the choice of parameters in the examples.
Early in phase III, a number of reports of prolapses and urinary incontinence were received. It was suspected that there were too many cases of prolapses and incontinence. Therefore, it was decided to set up a surveillance program, including expedited reporting of the events even though they are not classified as serious adverse events. Furthermore, investigators were instructed specifically to check for these types of events.
First, it was decided to set up separate programs for prolapses and incontinence, but later the etiology was suspected to be the same and therefore a combined program was used. The incidence of these events is poorly documented in the literature. There are a few reports on the prevalence and based on these, an incidence of 1%/year for each type of adverse event was chosen. This gives an estimated 60 events during the first year of the trial, distributed with 40 in the treatment group, and 20 in the placebo group. An alternative considered was to have a relative risk of 2, corresponding to an expected number of […]. The lower limit c was chosen as 0.
Due to the focus on these events, a number of adverse events were reported each day, and safety committee meetings were held each week. […] At this time, the process had passed not only the limit corresponding to the incidence of 1% of each type of adverse event, but also the limit corresponding to an incidence of 10%. Such “overrunning” seems to be unavoidable for multi-center studies. The distribution 44 to 1 corresponds to a relative risk of 22 for NNC 46-0020. […]

- relative risk of prolapses and incontinence ([2]; phase III, drug (two doses pooled, 2/3 of patients) versus placebo (1/3), at the committee meeting where the alarm limit was passed): 22
Compound: COc1ccc2c(c1)OC(C)(C)[C@@H](c1ccccc1)[C@@H]2c1ccc(OCCN2CCCC2)cc1 [NNC 46-0020]
- adverse events in phase II trials [1]: without major problems regarding adverse events
- final analysis of risk of prolapses and incontinence ([2]; after termination of the phase III trials, relative risk estimate reduced): increased risk of prolapses and incontinence
- distribution of adverse events (prolapses and incontinence), treatment group to placebo group ([2]; phase III, unblinded cases at the committee meeting where the alarm limit was passed): 44 to 1
